In patent US11584714B2 (priority 2018, dated 2023):

Legend:
Thrombin = Thrombin (Homo sapiens (Human), UniProt P00734); test: Thrombin inhibition (Ki); type: biochemical; conditions: for Ki: read-out: Thrombin Ki
MASP-2 = MASP-2 (Homo sapiens (Human), UniProt O00187); test: MASP-2 inhibition (Ki); type: biochemical
α-chymotrypsin = α-chymotrypsin (Bos taurus (Bovine), UniProt P00766, DEL14-15/DEL147-148); conditions: cited from earlier work

Chain of MASP-2 (O00187 16-686): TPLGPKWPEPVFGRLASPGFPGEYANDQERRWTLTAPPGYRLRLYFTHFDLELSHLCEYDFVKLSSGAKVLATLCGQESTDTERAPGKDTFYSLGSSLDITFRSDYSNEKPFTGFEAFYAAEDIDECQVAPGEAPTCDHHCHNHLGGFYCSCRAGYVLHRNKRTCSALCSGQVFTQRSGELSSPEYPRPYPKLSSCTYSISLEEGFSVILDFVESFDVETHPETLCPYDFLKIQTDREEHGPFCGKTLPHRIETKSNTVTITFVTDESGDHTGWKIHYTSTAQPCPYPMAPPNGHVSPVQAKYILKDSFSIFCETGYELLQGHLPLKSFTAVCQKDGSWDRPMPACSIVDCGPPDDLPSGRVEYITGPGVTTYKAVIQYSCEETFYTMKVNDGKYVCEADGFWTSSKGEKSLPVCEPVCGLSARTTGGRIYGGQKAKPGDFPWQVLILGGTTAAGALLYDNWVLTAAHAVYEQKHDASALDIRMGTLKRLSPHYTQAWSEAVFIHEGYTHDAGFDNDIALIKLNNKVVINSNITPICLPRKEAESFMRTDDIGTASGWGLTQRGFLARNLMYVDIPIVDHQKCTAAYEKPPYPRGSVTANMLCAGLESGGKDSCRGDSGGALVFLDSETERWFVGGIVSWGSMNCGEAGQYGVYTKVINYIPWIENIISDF

For `C/C=C/C=C/C(=O)Nc1ccccc1C(=O)O` [compound 37], the “Thrombin Ki (μM)” value (Thrombin) was “No activity” and the Ki (MASP-2) was 25 to 100 µM.
For `Cc1ccc(S(=O)(=O)n2nc(OC(=O)c3ccco3)cc2N)cc1` [compound 39], the Ki (Thrombin) was 10 to 25 µM and the Ki (MASP-2) was < 10 µM.
For `COc1ccc(S(=O)(=O)n2nc(OC(=O)c3ccco3)cc2N)cc1` [compound 40], the Ki (Thrombin) was < 10 µM and the Ki (MASP-2) was < 10 µM.
With `CC(=O)c1ccc(OC(=O)c2ccco2)cc1` [compound 41] the “Thrombin Ki (μM)” value (Thrombin) was “No activity” and the Ki (MASP-2) was < 10 µM.
In the case of `Cc1sc2nc(-c3ccccc3F)oc(=O)c2c1C` [compound 42], the Ki (Thrombin) is reported as 25 to 100 µM and the Ki (MASP-2) is reported as < 10 µM.
For `CCc1cc2c(=O)oc(-c3ccccc3C)nc2s1` [compound 43], the Ki (Thrombin) was 25 to 100 µM and the Ki (MASP-2) was < 10 µM.
In the case of `Nc1cc(OC(=O)c2ccco2)nn1S(=O)(=O)c1ccc(F)cc1` [compound 44], the Ki (Thrombin) is reported as 25 to 100 µM and the Ki (MASP-2) is reported as < 10 µM.
For `N#Cc1ccc(OC(=O)c2ccc(Br)o2)cc1` [compound 45], the Ki (Thrombin) was 25 to 100 µM and the Ki (MASP-2) was < 10 µM.
For `Nc1nc2ccccc2[nH]1` [compound 46], the “Thrombin Ki (μM)” value (Thrombin) was “No activity” and the Ki (MASP-2) was 25 to 100 µM.
In the case of `N=C(N)c1ccc(N)cc1` [compound 47], the “Thrombin Ki (μM)” value (Thrombin) is reported as “No activity” and the Ki (MASP-2) is reported as 25 to 100 µM.
In the case of `CN(C(=O)c1cc2ccccc2cc1C(=O)C(c1cccc2ccccc12)P(=O)(O)O)C1CCN(C(=O)c2ccccc2)CC1` (stereo not shown) [compound 51], the “Thrombin Ki (μM)” value (Thrombin) is reported as “No activity” and the Ki (MASP-2) is reported as 10 to 25 µM.
In the case of `N=C(N)c1ccc2ccccc2c1` [compound 53], the Ki (Thrombin) is reported as 10 to 25 µM and the Ki (MASP-2) is reported as < 10 µM.
For MeO-Suc-Ala-Ala-ProboroPhe-OH, the Ki (α-chymotrypsin) is given as 0.16 nM.
